Measured values: patent US12595248B2, “PRMT5 inhibitors” (Merck Sharp & Dohme LLC, priority 2019, dated 2026)
Like-named read-outs stand apart in the source and are kept apart here.

Legend:
[1] = molecular target: T1, PRMT5-MEP50 enzyme complex (Homo sapiens, UniProt O14744); assay: PRMT5-MEP50 Enzyme Methylation Assay (Version A); format: biochemical
T1 construct: Full-length (FL)-PRMT5-MEP50 enzyme complex (recombinant proteins from baculovirus-transfected Sf21 cells: FL-PRMT5; MW=73837 kDa and FL-MEP50; MW=38614); made in house; host or cells: baculovirus-transfected Sf21 cells
T1 sequence (O14744 whole entry): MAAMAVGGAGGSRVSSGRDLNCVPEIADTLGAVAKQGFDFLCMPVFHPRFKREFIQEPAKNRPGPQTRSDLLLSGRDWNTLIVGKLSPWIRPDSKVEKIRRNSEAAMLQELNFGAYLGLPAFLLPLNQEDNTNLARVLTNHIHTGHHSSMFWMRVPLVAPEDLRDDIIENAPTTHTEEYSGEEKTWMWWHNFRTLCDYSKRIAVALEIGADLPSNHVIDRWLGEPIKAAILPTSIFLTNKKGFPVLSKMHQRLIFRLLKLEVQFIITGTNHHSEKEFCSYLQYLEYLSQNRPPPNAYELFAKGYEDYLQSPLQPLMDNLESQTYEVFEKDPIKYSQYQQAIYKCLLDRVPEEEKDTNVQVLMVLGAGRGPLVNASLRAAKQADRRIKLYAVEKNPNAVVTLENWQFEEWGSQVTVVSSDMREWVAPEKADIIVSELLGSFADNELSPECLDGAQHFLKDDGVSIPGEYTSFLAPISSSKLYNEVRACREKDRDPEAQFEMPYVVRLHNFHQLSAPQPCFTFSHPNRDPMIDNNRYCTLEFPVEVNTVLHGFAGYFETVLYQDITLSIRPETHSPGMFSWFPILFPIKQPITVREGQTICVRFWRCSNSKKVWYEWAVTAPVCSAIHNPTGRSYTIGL
T1 sequence (Q9BQA1 whole entry partner): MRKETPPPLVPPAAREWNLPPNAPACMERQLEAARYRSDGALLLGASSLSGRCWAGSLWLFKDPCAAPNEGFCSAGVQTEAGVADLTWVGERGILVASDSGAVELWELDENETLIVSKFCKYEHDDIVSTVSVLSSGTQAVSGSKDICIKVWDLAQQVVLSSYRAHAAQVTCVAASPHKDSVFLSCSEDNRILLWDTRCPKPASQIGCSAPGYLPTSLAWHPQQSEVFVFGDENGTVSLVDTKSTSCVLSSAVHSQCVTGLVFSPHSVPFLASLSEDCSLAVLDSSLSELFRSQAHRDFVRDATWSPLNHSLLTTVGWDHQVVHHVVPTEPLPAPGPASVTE
Method: PRMT5-MEP50 Enzyme Methylation Assay (Version A)
PRMT5-MEP50 biochemical assay is a direct measurement of the methylation activity of the enzyme complex on a short peptide substrate derived from the N-terminus of H4 histone. Methylation experiment was performed with recombinant PRMT5-MEP50 protein complex. The assessment of inhibitory effect of small molecules was measured by the effectiveness of the compounds to inhibit this reaction (EC50).
In this assay, the potency (EC50) of each compound was determined from a twenty-point (1:2 serial dilution; top compound concentration of 100000 nM) titration curve using the following outlined procedure. To each well of a white ProxiPlus 384 well-plate, 100 nL of compound (1% DMSO in final assay volume of 10 μL) was dispensed, followed by the addition of 8 μL of 1× assay buffer (50 mM Bicine pH 8.0, 1 mM DTT, 0.004% Tween20, 0.01% BSA) containing 1.25 nM of Full-length (FL)-PRMT5-MEP50 enzyme complex (recombinant proteins from baculovirus-transfected Sf21 cells: FL-PRMT5; MW=[…] and FL-MEP50; MW=38614) and 1 μL of 150 μM S-(5′-Adenosyl)-L-Methionine Chloride (SAM). A plate was sealed and placed in a 37° C. humidified chamber for a 60 minutes pre-incubation with compound. Subsequently, each reaction was initiated by the addition of 1 μL 1× assay buffer containing 750 nM biotinylated H4R3 (MeI) peptide. The final reaction in each well of 10 μL consists of 1.0 nM PRMT5-MEP50, 75 nM biotinylated-peptide, and 15 μM SAM. Methylation reactions were allowed to proceed for 150 minutes in a sealed plate at 37° C. Reactions were immediately quenched by the addition of 1 μL of 5% formic acid. A plate was then frozen and shipped to SAMDI™ Tech Inc. to determine the percent conversion from H4R3 (MeI) to H4R3 (Me2). Dose-response curves were generated by plotting percent effect (% product conversion; Y-axis) vs. Log 10 compound concentrations (X-axis). EC50 values were determined by non-linear regression according to models for either sigmoidal (4 parameters) or biphasic (7 parameters) dose-response curves.

PRMT5 = molecular target: T2, PRMT5 (Homo sapiens, UniProt O14744); assay: PRMT5 Cell Target Engagement (TE) Assay; format: cell-based; details: MCF-7 cells, treated for 3 days, symmetric dimethylation of arginine (SDMA) by high content imaging
T2 construct: seeded with 4000 MCF-7 cells in 30 μl media; endogenous in cells; host or cells: MCF-7 cells
T2 sequence (O14744 whole entry): as the sequence (O14744 whole entry) above
T2 sequence (Q9BQA1 whole entry partner): as the sequence (Q9BQA1 whole entry partner) above
Method in brief: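 Readout is single-cell nuclear symmetric-dimethylarginine immunofluorescence (Alexa488), normalized to DMSO-treated cells. Compounds were applied to MCF-7 cells for 3 days at 37 °C, top concentration 10000 nM in 1:3 steps over ten points; curves fitted with 4-parameter robust fit.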

[2] = only one EC50 shown: 4 parameters single site sigmoidal model, 60 min pre-incubation with SAM, read-out: Enzyme Methylation Assay Version A (EC50)
[3] = first of two EC50s: 7 parameters biphasic model, read-out: Enzyme Methylation Assay Version A (EC50_1)
[4] = second of two EC50s: 7 parameters biphasic model, read-out: Enzyme Methylation Assay Version A (EC50_2)

Structure (SMILES) | EC50 [1, 2] [nM] | EC50 (PRMT5) [nM] | EC50 [1, 3] [nM] | EC50 [1, 4] [nM]
O=C(c1ccc2c(c1)NCCN(CC(F)(F)F)C2=O)N1CC[C@H](N2CCc3ccccc3C2)[C@@H](O)C1 [Example 102, 8-((3S,4S)-4-(3,4-dihydroisoquinolin-2(1H)-yl)-3-hydroxypiperidine-1-carbonyl)-4-(2,2,2-trifluoroethyl)-1,2,3,4-tetrahydro-5H-benzo[e][1,4]diazepin-5-one] | – | 10 | 1.5 | 905
CC(C)(C)OC(=O)N1C2CCC1CC(Nc1cc(C(=O)N3CC[C@H](N4CCc5ccccc5C4)[C@@H](O)C3)c(F)cn1)C2 (stereo partly drawn) [Example 104, tert-butyl-3-((4-((3S,4S)-4-(3,4-dihydroisoquinolin-2(1H)-yl)-3-hydroxypiperidine-1-carbonyl)-5-fluoropyridin-2-yl)amino)-8-azabicyclo[3.2.1]octane-8-carboxylate] | 1.7 | 42 | – | –
CCC(=O)N1CCC(Nc2cc(C(=O)N3CC[C@H](N4CCc5ccccc5C4)[C@@H](O)C3)c(F)cn2)CC1 [Example 111, 1-(4-((4-((3S,4S)-4-(3,4-dihydroisoquinolin-2(1H)-yl)-3-hydroxypiperidine-1-carbonyl)-5-fluoropyridin-2-yl)amino)piperidin-1-yl)propan-1-one] | 1.4 | 6.1 | – | –
O=C(c1cc(NC2CC3CCC(C2)N3)ncc1F)N1CC[C@H](N2CCc3ccccc3C2)[C@@H](O)C1 (stereo partly drawn) [Example 121, (2-((8-azabicyclo[3.2.1]octan-3-yl)amino)-5-fluoropyridin-4-yl)((3S,4S)-4-(3,4-dihydroisoquinolin-2(1H)-yl)-3-hydroxypiperidin-1-yl)methanone] | – | 1590 | 14 | 2880
CC(=O)N1C2CCC1CC(Nc1cc(C(=O)N3CC[C@H](N4CCc5ccccc5C4)[C@@H](O)C3)c(F)cn1)C2 (stereo partly drawn) [Example 122, 1-(3-((4-((3S,4S)-4-(3,4-dihydroisoquinolin-2(1H)-yl)-3-hydroxypiperidine-1-carbonyl)-5-fluoropyridin-2-yl)amino)-8-azabicyclo[3.2.1]octan-8-yl)ethan-1-one] | 3.4 | 5.9 | – | –
CC(=O)N1C[C@H]2CC[C@@H](C1)C2Nc1cc(C(=O)N2CC[C@H](N3CCc4ccccc4C3)[C@@H](O)C2)c(F)cn1 (stereo partly drawn) [Example 124, 1-((1R,5S)-8-((4-((3S,4S)-4-(3,4-dihydroisoquinolin-2(1H)-yl)-3-hydroxypiperidine-1-carbonyl)-5-fluoropyridin-2-yl)amino)-3-azabicyclo[3.2.1]octan-3-yl)ethan-1-one] | – | 33 | 5.2 | 4270
O=C(c1ccc2c(O)c(CC(F)(F)F)cnc2c1)N1CC[C@H](N2CCc3ccccc3C2)[C@@H](O)C1 [Example 126, ((3S,4S)-4-(3,4-dihydroisoquinolin-2(1H)-yl)-3-hydroxypiperidin-1-yl)(4-hydroxy-3-(2,2,2-trifluoroethyl)quinolin-7-yl)methanone] | – | 69 | 1.1 | 1330
O=C(c1cn2cc(Cl)ccc2n1)N1CC[C@H](N2CCc3ccccc3C2)[C@@H](O)C1 [Example 132, (6-chloroimidazo[1,2-a]pyridin-2-yl)[(3S,4S)-4-(3,4-dihydroisoquinolin-2(1H)-yl)-3-hydroxypiperidin-1-yl]methanone] | 3.2 | 32 | – | –

The next lines start with the values.

EC50 [1, 2] [nM] | EC50 (PRMT5) [nM] | EC50 [1, 3] [nM] | EC50 [1, 4] [nM] | Structure (SMILES)
2.1 | 13 | – | – | CC(C#N)c1cnc2nc(C(=O)N3CC[C@H](N4CCc5ccccc5C4)[C@@H](O)C3)cn2c1 (stereo partly drawn) [Example 77, 2-{2-[(3S,4S)-4-(3,4-dihydroisoquinolin-2(1H)-yl)-3-hydroxypiperidine-1-carbonyl]imidazo[1,2-a]pyrimidin-6-yl}propanenitrile]
0.7 | 21 | – | – | O=C(c1cn2cc(Br)c(C3CC3)nc2n1)N1CC[C@H](N2CCc3ccccc3C2)[C@@H](O)C1 [Example 78, (6-bromo-7-cyclopropylimidazo[1,2-a]pyrimidin-2-yl)[(3S,4S)-4-(3,4-dihydroisoquinolin-2(1H)-yl)-3-hydroxypiperidin-1-yl]methanone]
0.7 | 4.9 | – | – | CC(C)c1nc2nc(C(=O)N3CC[C@H](N4CCc5ccccc5C4)[C@@H](O)C3)cn2cc1Br [Example 79, [6-bromo-7-(propan-2-yl)imidazo[1,2-a]pyrimidin-2-yl][(3S,4S)-4-(3,4-dihydroisoquinolin-2(1H)-yl)-3-hydroxypiperidin-1-yl]methanone]
– | 16 | 0.9 | 2880 | CC1(C)Oc2ccc(C(=O)N3CC[C@H](N4CCc5ccccc5C4)[C@@H](O)C3)cc2NC1=O [Example 101, 6-((3S,4S)-4-(3,4-dihydroisoquinolin-2(1H)-yl)-3-hydroxypiperidine-1-carbonyl)-2,2-dimethyl-2H-benzo[b][1,4]oxazin-3(4H)-one]
2.1 | 7.9 | – | – | CCOc1cnc(NC2CCN(C(C)=O)CC2)cc1C(=O)N1CC[C@H](N2CCc3ccccc3C2)[C@@H](O)C1 [Example 107, 1-(4-((4-((3S,4S)-4-(3,4-dihydroisoquinolin-2(1H)-yl)-3-hydroxypiperidine-1-carbonyl)-5-ethoxypyridin-2-yl)amino)piperidin-1-yl)ethan-1-one]
1.3 | 3.8 | – | – | O=C(c1cc(NC2CCN(C(=O)C3CC3)CC2)ncc1F)N1CC[C@H](N2CCc3ccccc3C2)[C@@H](O)C1 [Example 108, (2-((1-(cyclopropanecarbonyl)piperidin-4-yl)amino)-5-fluoropyridin-4-yl)((3S,4S)-4-(3,4-dihydroisoquinolin-2(1H)-yl)-3-hydroxypiperidin-1-yl)methanone]
1.2 | 3.5 | – | – | COC(=O)N1CCC(Nc2cc(C(=O)N3CC[C@H](N4CCc5ccccc5C4)[C@@H](O)C3)c(F)cn2)CC1 [Example 109, methyl 4-((4-((3S,4S)-4-(3,4-dihydroisoquinolin-2(1H)-yl)-3-hydroxypiperidine-1-carbonyl)-5-fluoropyridin-2-yl)amino)piperidine-1-carboxylate]
1.4 | 8.1 | – | – | CN(C)C(=O)N1CCC(Nc2cc(C(=O)N3CC[C@H](N4CCc5ccccc5C4)[C@@H](O)C3)c(F)cn2)CC1 [Example 110, 4-((4-((3S,4S)-4-(3,4-dihydroisoquinolin-2(1H)-yl)-3-hydroxypiperidine-1-carbonyl)-5-fluoropyridin-2-yl)amino)-N,N-dimethylpiperidine-1-carboxamide]
– | 50 | 4.5 | 4420 | CN1CCC(Nc2cc(C(=O)N3CC[C@H](N4CCc5ccccc5C4)[C@@H](O)C3)c(F)cn2)CC1=O (stereo partly drawn) [Example 112, 4-((4-((3S,4S)-4-(3,4-dihydroisoquinolin-2(1H)-yl)-3-hydroxypiperidine-1-carbonyl)-5-fluoropyridin-2-yl)amino)-1-methylpiperidin-2-one]
4.1 | 17 | – | – | CC(=O)N1CC[C@@H](CNc2cc(C(=O)N3CC[C@H](N4CCc5ccccc5C4)[C@@H](O)C3)c(F)cn2)C1 [Example 123, 1-((S)-3-(((4-((3S,4S)-4-(3,4-dihydroisoquinolin-2(1H)-yl)-3-hydroxypiperidine-1-carbonyl)-5-fluoropyridin-2-yl)amino)methyl)pyrrolidin-1-yl)ethan-1-one]
– | 1750 | ~58 | 13700 | N#CC1(c2ccc3nc(C(=O)N4CC[C@H](N5CCc6ccccc6C5)[C@@H](O)C4)cn3c2)CC1 [Example 125, 1-(2-((3S,4S)-4-(3,4-dihydroisoquinolin-2(1H)-yl)-3-hydroxypiperidine-1-carbonyl)imidazo[1,2-a]pyridin-6-yl)cyclopropane-1-carbonitrile]
– | 140 | 3.2 | 569 | O=C(c1nn2cc(Br)cnc2c1Cl)N1CC[C@H](N2CCc3ccccc3C2)[C@@H](O)C1 [Example 133, (6-bromo-3-chloropyrazolo[1,5-a]pyrimidin-2-yl)[(3S,4S)-4-(3,4-dihydroisoquinolin-2(1H)-yl)-3-hydroxypiperidin-1-yl]methanone]
